Consider 7 compounds from patent US20050070554A1, “Substituted heterocyclic compounds and methods of use” (Amgen Inc., priority 2003, published 2005).

T1 sequence (P06239 225-509): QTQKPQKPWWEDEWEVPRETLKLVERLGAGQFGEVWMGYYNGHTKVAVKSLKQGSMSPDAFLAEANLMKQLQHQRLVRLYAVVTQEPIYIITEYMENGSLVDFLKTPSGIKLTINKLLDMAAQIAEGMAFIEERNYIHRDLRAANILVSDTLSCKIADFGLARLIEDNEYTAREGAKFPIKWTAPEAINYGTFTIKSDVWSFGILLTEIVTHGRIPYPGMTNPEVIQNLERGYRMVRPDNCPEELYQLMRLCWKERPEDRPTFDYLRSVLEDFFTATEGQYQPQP

The first assay addresses T1, LCK (Homo sapiens, UniProt P06239).
T1 construct: LCK KD GST (225-509); GST
In words: LCK-Homogeneous Time Resolved Fluorescent (HTRF) Kinase Assay. Format: biochemical.
Conditions: not given
In a few lines:
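LCK phosphorylates biotinylated Gastrin peptide in the presence of ATP for 90 min in 50 mM HEPES pH 7.5, 50 mM NaCl, 20 mM MgCl, 5 mM MnCl, 2 mM DTT, 0.05% BSA. Reaction stopped with EDTA-containing detection reagent, then equilibrated 30 min before HTRF read.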
In general terms: TR-FRET usually uses a lanthanide donor and a delayed reading to cut background.
Take `Cc1cccc(-n2c(=O)c3cnc(Nc4ccc(N5CCN(C)CC5)cc4)nc3n3c4ccccc4nc23)c1` [No. 80, 6-(3-methylphenyl)-2-((4-(4-methyl-1-piperazinyl)-phenyl)amino)pyrimido[5′,4′:5,6]pyrimido[1,2-a]-benzimidazol-5(6H)-one]: the IC50 is < 1000 nM.

In the case of `COc1cccc(-n2c(=O)c3cnc(Nc4ccc(N5CCN(C)CC5)cc4)nc3n3c4ccccc4nc23)c1` [No. 81, 6-(3-(methyloxy)phenyl)-2-((4-(4-methyl-1-piperazinyl)phenyl)amino)pyrimido[5′,4′:5,6]-pyrimido[1,2-a]benzimidazol-5(6H)-one], the IC50 was < 1000 nM.

The same assay, now with this note: read-out: activity in the LCK-HTRF Kinase Assay.
Turning to `CN1CCN(c2ccc(Nc3ncc4c(=O)n(-c5cccc(F)c5)c5nc6ccccc6n5c4n3)cc2)CC1` [No. 83, 6-(3-fluorophenyl)-2-((4-(4-methyl-1-piperazinyl)-phenyl)amino)pyrimido[5′,4′:5,6]pyrimido[1,2-a]-benzimidazol-5(6H)-one], the IC50 is < 1000 nM.

`CN1CCN(c2ccc(Nc3ncc4c(=O)n(-c5ccc(F)cc5)c5nc6ccccc6n5c4n3)cc2)CC1` [No. 84, 6-(4-fluorophenyl)-2-((4-(4-methyl-1-piperazinyl)-phenyl)amino)pyrimido[5′,4′:5,6]pyrimido[1,2-a]-benzimidazol-5(6H)-one]: the IC50 was < 1000 nM.

Take `Cc1cccc(C)c1-n1c(=O)c2cnc(Nc3ccc(N4CCN(C)CC4)cc3)nc2n2ccnc12` [No. 87, 6-(2,6-dimethylphenyl)-2-((4-(4-methyl-1-piperazinyl)phenyl)amino)imidazo[1,2-a]-pyrimido[5,4-e]pyrimidin-5(6H)-one]: the IC50 was < 1000 nM.

As to `CN1CCN(c2ccc(Nc3ncc4c(=O)n(-c5c(F)cccc5F)c5nc6ccccc6n5c4n3)cc2)CC1` [No. 88, 6-(2,6-difluorophenyl)-2-((4-(4-methyl-1-piperazinyl)-phenyl)amino)pyrimido[5′,4′:5,6]pyrimido[1,2-a]-benzimidazol-5(6H)-one], the IC50 was < 1000 nM.

Regarding `CN1CCN(c2ccc(Nc3ncc4c(=O)n(-c5c(F)c(F)c(F)c(F)c5F)c5nc6ccccc6n5c4n3)cc2)CC1` [No. 89, 2-((4-(4-methyl-1-piperazinyl)phenyl)amino)-6-(pentafluorophenyl)pyrimido[5′,4′:5,6]pyrimido[1,2-a]benzimidazol-5(6H)-one], the IC50 was < 1000 nM.
